From the NIST ThermoML archive (doi:10.1021/je900414p)

Details: Liquid

CCOS(=O)(=O)[O-].CCn1cc[n+](C)c1 [1-ethyl-3-methylimidazolium ethyl sulfate]
mass density [kg/m3]
Details	100 kPa	2500 kPa	5000 kPa	10000 kPa	15000 kPa	20000 kPa	25000 kPa	30000 kPa	35000 kPa
283.15 K	1247.6	1248.59	1249.58	1251.56	1253.65	1255.44	1257.31	1259.18	1261.04
288.15 K	1244.17	1245.15	1246.17	1248.17	1250.14	1252.1	1254.03	1255.9	1257.77
293.15 K	1240.67	1241.7	1242.72	1244.75	1246.75	1248.72	1250.66	1252.56	1254.46
298.15 K	1237.33	1238.32	1239.36	1241.41	1243.42	1245.42	1247.38	1249.31	1251.22
303.15 K	1233.95	1234.96	1236.02	1238.1	1240.14	1242.15	1244.14	1246.11	1248.06
308.15 K	1230.49	1231.54	1232.6	1234.71	1236.78	1238.83	1240.83	1242.81	1244.76
313.15 K	1227.14	1228.21	1229.29	1231.41	1233.51	1235.57	1237.6	1239.6	1241.57
318.15 K	1223.86	1224.94	1226.03	1228.17	1230.31	1232.4	1234.44	1236.49	1238.47
323.15 K	1220.46	1221.54	1222.66	1224.85	1226.99	1229.11	1231.18	1233.23	1235.25
328.15 K	1217.07	1218.15	1219.31	1221.5	1223.69	1225.81	1227.93	1229.99	1232.04
333.15 K	1213.67	1214.63	1215.87	1218.14	1220.35	1222.53	1224.65	1226.74	1228.8
338.15 K	1210.4	1211.52	1212.68	1214.94	1217.17	1219.36	1221.51	1223.61	1225.71

CCO [ethanol]
mass density [kg/m3]
Details	100 kPa	2500 kPa	5000 kPa	10000 kPa	15000 kPa	20000 kPa	25000 kPa	30000 kPa	35000 kPa
283.15 K	797.76	799.74	801.73	805.58	809.28	812.8	816.2	819.47	822.63
288.15 K	793.65	795.66	797.73	801.67	805.43	809.06	812.52	815.87	819.04
293.15 K	789.19	791.25	793.37	797.42	801.3	804.99	808.53	811.94	815.23
298.15 K	784.92	787.03	789.21	793.38	797.34	801.11	804.75	808.21	811.58
303.15 K	780.63	782.81	785.04	789.3	793.37	797.25	800.93	804.49	807.95
308.15 K	776.26	778.54	780.82	785.22	789.37	793.34	797.14	800.76	804.27
313.15 K	771.91	774.26	776.62	781.13	785.4	789.45	793.33	797.04	800.61
318.15 K	767.58	769.99	772.41	777.04	781.43	785.59	789.55	793.36	796.98
323.15 K	763.09	765.56	768.08	772.84	777.34	781.59	785.65	789.53	793.24
328.15 K	758.54	761.09	763.7	768.58	773.22	777.57	781.73	785.7	789.5
333.15 K	753.96	756.61	759.27	764.32	769.08	773.56	777.81	781.87	785.76
338.15 K	749.42	752.16	754.89	760.09	764.99	769.59	773.96	778.09	782.06
343.15 K	744.74	747.57	750.39	755.74	760.75	765.47	769.94	774.17	778.23
